# Source: patent US20250257146A1, “ANTI-TROP2 ANTIBODY-DRUG CONJUGATE” (DAIICHI SANKYO COMPANY, LIMITED, priority 2013, published 2025)
# T1: topoisomerase I (Homo sapiens, UniProt P11387)
# T1 sequence (P11387 1-765): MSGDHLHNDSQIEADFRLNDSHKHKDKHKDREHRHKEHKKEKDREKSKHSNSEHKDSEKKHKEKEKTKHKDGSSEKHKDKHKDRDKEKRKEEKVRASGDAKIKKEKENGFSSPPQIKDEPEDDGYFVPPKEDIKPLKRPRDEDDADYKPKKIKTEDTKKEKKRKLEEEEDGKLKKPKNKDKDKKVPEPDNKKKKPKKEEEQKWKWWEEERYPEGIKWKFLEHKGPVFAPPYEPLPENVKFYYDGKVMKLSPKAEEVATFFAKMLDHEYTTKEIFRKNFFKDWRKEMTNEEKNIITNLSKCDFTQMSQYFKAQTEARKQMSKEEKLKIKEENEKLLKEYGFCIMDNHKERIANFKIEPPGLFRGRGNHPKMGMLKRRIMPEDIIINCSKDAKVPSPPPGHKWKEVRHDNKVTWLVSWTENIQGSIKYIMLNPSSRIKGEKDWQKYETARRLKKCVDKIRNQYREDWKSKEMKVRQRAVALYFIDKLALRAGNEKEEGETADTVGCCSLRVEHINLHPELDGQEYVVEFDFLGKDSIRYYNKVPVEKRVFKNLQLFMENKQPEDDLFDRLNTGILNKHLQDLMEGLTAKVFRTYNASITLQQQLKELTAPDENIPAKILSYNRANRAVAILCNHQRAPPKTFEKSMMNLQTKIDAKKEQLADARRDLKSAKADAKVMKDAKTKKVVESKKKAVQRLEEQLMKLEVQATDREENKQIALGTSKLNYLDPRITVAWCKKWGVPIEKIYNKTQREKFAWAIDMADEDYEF
# T2: CHOK1 cells expressing human TROP2 (Homo sapiens, UniProt P09758)
# T2 construct: expressed in transfected cells; host or cells: CHOK1
# T2 sequence (P09758 27-323): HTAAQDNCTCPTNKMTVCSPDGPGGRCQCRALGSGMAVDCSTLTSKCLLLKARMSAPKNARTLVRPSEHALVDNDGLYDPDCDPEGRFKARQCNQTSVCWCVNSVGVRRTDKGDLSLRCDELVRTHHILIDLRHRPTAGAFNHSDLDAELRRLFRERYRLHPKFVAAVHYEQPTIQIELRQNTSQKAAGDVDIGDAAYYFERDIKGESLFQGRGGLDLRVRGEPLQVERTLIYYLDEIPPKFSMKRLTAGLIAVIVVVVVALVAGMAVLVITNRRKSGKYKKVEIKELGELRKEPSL
# B1: TINA1: antibody produced by the TROP2 hybridoma TINA1; mouse anti-TROP2 monoclonal antibody (antibody, listed as Mus musculus, V domains shown)
# VH: QIQLVQSGPELKKPGETVRISCKASGYTFTTAGMQWVQKMPGKGLKWIGWINTHSGVPKYAEDFKGRFAFSLETSASTAYLQISNLKNEDTTTYFCARSGFGSSYWYFDVWGAGTAVTVSS
# VL: DIVMTQSHKFMSTSVGDRVSITCKASQDVSTAVAWYQQKPGQSPKLLIYSASYRYTGVPDRFTGSGSGTAFTFTISSVQAEDLAVYYCQQHYITPLTFGAGTKLELKRA
# Tests used:
# [1] = Self-degradation of released drug derivative with aminal structure; type: physicochemical
# human tumor = human tumor subcutaneously transplanted mouse model; cited from earlier work
# various cancer cells = details: against various cancer cells; cited from earlier work
# topoisomerase I = target: T1, topoisomerase I; details: compared with SN-38 and topotecan; cited from earlier work
# [2] = target: T2, CHOK1 cells expressing human TROP2; test: FACS analysis of TINA1 antibody on TROP2-overexpressing cells; type: cell-based
# Protocol: Because the antigen of the TINA1 antibody was predicted to be TROP2 from the band pattern, overexpression analysis by gene transfer of cDNA was conducted without mass spectrometry. […] Similar FACS analysis was conducted using a lung cancer cell line PC14, a lung cancer cell line NCI-H322, a lung cancer cell line NCI-H2122, a lung cancer cell line LCAM1, a lung cancer cell line LC2/ad, a pancreatic cancer cell line MIAPaCa2, a pancreatic cancer cell line PK-1, a prostate cancer cell line PC3, a colorectal cancer cell line HCT116, a melanoma cell line A375, an ovarian cancer cell line SKOV3, a hematopoietic tumor cell line RPMI8226, a hematopoietic tumor cell line K562, PBMC (human peripheral blood mononuclear cells), and human platelet. All of the examined lung cancer cell lines were TROP2-positive, and PC3, PK1, and SKOV3 were positive as the cell lines except for the lung cancer ones. On the other hand, all of the normal blood cells were negative.
# NCI-H322 cells = test: Internalization activity and immunotoxin activity using DT3C; type: cell-based, human
# Text: 4-1) Antibody internalization activity evaluation system A recombinant fusion protein DT3C was produced for the purpose of measuring internalization activity and immunotoxin activity of an antibody. This DT3C is a protein having a catalytic domain of diphtheria toxin (DT) and three antibody-binding regions of protein G. DT3C specifically binds to an Fc moiety of an antibody, is stable, and induces cell death by inhibiting protein synthesis when taken up into cells. By use of this system, the internalization effect of antibody and the cytocidal effect thereof by immunotoxin can be observed at the same time (Yamaguchi, M., Hamada, H., et al., Biochemical and Biophysical Research Communications 454 (2014) 600-603).
# 4 μg/mL of DT3C was added at 25 μL/well to a 96-well plate, further the culture supernatants of 11 hybridomas obtained by the method of Example 1 or a method equivalent thereto were each added at 25 μL/well to the plate, and the plate was incubated at room temperature for 30 minutes. […] After incubation for 1 hour in a CO2 incubator of 37° C., the number of live cells was measured using a microplate reader (OD450 to OD640, infinite 200, Tecan Trading AG).
# Each diluted solution of DT3C (0, 0.004, 0.04, 0.4, 4, or 40 μg/mL) was added at 25 μL/well to a 96-well plate, then each antibody (40 μg/mL) was added at 25 μL/well to the plate, and the plate was incubated at room temperature for 30 minutes. […] After incubation for 1 hour in a CO2 incubator of 37° C., the number of live cells was measured using a plate reader (OD450 to OD640).
# Anti-TROP2 antibodies TINA1 (immunogen: lung cancer line NCI-H322), KCL7A3 and KCL2D6 (immunogen: pancreatic cancer cell line KCL-MOH1), Pr1E11 and Pr8H10 (immunogen: prostate cancer cell line Pc-1), and NY16 and NY17 (immunogen: pancreatic cancer cell line PK-1) obtained by the method of Example 1 or a method equivalent thereto, and commercially available 77220 (R&D Systems Inc.) were evaluated for their internalization activity and immunotoxin activity in the same manner as in Example 4-3).
molecule,measurement,setting,value
CCC1(O)C(=O)OCc2c1cc1n(c2=O)Cc2c-1nc1cc(F)c(C)c3c1c2C(NC(=O)COCN)CC3 (centres unmarked) [NH2—CH2—O—CH2—C(═O)—(NH-DX)],stability of the aminal structure (self-degradation to HO—CH2—C(═O)—(NH-DX)),[1],unstable
"CC[C@@]1(O)C(=O)OCc2c1cc1n(c2=O)Cc2c-1nc1cc(F)c(C)c3c1c2[C@@H](N)CC3 [exatecan, (1S,9S)-1-amino-9-ethyl-5-fluoro-2,3-dihydro-9-hydroxy-4-methyl-1H,12H-benzo[de]pyrano[3′,4′:6,7]indolizino[1,2-b]quinolin-10,13(9H,15H)-dione]",antitumor effect,human tumor,potent antitumor effect
same,in vitro cytocidal activity,various cancer cells,higher in vitro cytocidal activity
same,inhibitory activity on topoisomerase I,topoisomerase I,higher than SN-38
B1,FACS response,[2],strong positive response
same,internalization activity and immunotoxin activity,"NCI-H322 cells; among the 8 anti-TROP2 antibodies, as Example 4-3, FIG. 12",strongest activity
same,internalization activity and immunotoxin activity,"NCI-H322 cells; antibody 40 μg/mL + DT3C 0-40 μg/mL, among antibodies against CD59, CD71, EGFR, EpCAM, TROP2, FIG. 11",strongest internalization activity and immunotoxin activity
same,internalization activity and immunotoxin activity,"NCI-H322 cells; hybridoma culture supernatant + DT3C 4 μg/mL, NCI-H322 cells, 3 days, FIG. 10",strong internalization activity and immunotoxin activity
